Where two headings read alike, the source gives them in different places. One block for each compound: values may come before it.
Experiments:
[1] = tested on: melanocytes; test: Cytotoxicity of literature controls in the melanocyte tyrosinase model
Method: A study is performed with molecules known in the literature for their depigmenting activity; these molecules are applied to the model described in Example 29 so as to compare their efficacy relative to the molecules described in the various examples. […]

[2] = tested on: fungal tyrosinase; test: In vitro test of inhibition of isolated fungal tyrosinase (L-dopa, dopachrome OD 490 nm); format: biochemical; conditions: 0.01%
Description: Tyrosinase catalyses the formation of L-dopaquinone and then of dopachrome from L-dopa. Now, dopachrome is a coloured compound that may be quantified by visible spectrophotometry at 490 nm. The use of an active agent capable of modifying the enzymatic activity will be reflected by a variation in the optical density at 490 nm. The to ratio of the rates of formation of dopachrome makes it possible to determine precisely the activations or inhibitions obtained with the various test molecules.
The sample to be tested is incubated in the presence of fungal tyrosinase (Sigma), for 5 minutes with stirring. L-Dopa (Sigma), a tyrosinase substrate, is incubated for 10 minutes in the absence of light, in the presence or absence of the test molecules. The calculation of the percentage of inhibition is performed by relating the test OD to the OD of the negative control without molecule.
In the context of this in vitro test, the p-coumaric acid derivatives were tested at final concentrations of 10^−4M and 10^−5M.

[3] = target: T1, Human tyrosinase (Homo sapiens, UniProt P14679); test: Inhibition of human tyrosinase after 24 h application to normal human melanocytes in monolayer; format: cell-based; conditions: for inhibition at 100 µM: read-out: Inhibition of human tyrosinase after application to normal human melanocytes, percentage of inhibition, Mean 10^−4M; for inhibition at 10 µM: 10^−5M, read-out: Inhibition of human tyrosinase after application to normal human melanocytes, percentage of inhibition, Mean 10^−5M; for anti-tyrosinase activity, in words: comment on Table 4, normal human melanocytes; for Tyrosinase inhibition, Mean Inhibition (%), 0.03%: test concentration 0.03%
T1 construct: endogenous in cells; host or cells: normal human melanocytes (abdominal surgery; several donors of fair, brown and black phototypes)
T1 sequence (P14679 19-529): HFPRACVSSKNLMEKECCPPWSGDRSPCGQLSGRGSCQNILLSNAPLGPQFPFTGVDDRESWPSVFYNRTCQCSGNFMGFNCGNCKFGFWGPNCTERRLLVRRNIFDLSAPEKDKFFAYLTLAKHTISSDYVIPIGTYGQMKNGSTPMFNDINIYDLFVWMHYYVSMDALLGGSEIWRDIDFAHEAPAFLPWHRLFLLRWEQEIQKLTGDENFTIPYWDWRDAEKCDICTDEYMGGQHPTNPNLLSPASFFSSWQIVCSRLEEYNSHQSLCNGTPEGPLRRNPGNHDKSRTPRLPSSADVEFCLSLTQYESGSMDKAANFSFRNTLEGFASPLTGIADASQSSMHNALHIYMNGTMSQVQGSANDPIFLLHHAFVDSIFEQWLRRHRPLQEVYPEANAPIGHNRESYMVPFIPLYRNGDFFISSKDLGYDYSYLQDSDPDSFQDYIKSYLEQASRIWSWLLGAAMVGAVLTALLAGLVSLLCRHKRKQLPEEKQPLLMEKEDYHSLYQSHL
Method: Normal human melanocytes (obtained from abdominal surgery) are seeded in 24-well plates at a rate of 80 000 cells per well. They are cultured to confluence and the active agents are applied for 24 hours to the culture media. After 24 hours, the media are removed and the melanocytes are detached via mechanical action. An extraction is performed via a thermal shock and the supernatants are then recovered and incubated with MBTH (Sigma) and L-dopa (Sigma). The OD at 490 nm is measured after 30 minutes, and the tyrosinase inhibition is calculated by relating the OD at 490 nm to the protein content (measured in each culture well) of the test relative to the ratio: OD 490 nm/protein concentration of the negative control (untreated control).
The compounds derived from the examples mentioned above were tested on melanocytes derived from various donors but of fair phototype, according to the protocol described in Example 29. The donors tested are as follows: • donor S (donor tested in Example 12): • donor 1: • donor 2: • donor 3
The compound derived from Example 1 is tested on cultures of melanocytes obtained from 2 donors of brown phototype and from one donor of black phototype. The protocol applied is that described in Example 29. […]

Compound: O=c1cc(CO)occ1O [Kojic acid, kojic acid]
Cytotoxicity, 0.005% [1]: no
Cytotoxicity, 0.05% [1]: no
Cytotoxicity, 0.5% [1]: cell death
Inhibition of fungal tyrosinase, positive control [2]: 45%

Compound: O=C(O)C=Cc1ccc(O)c(O)c1 [Caffeic acid, 3,4-dihydroxycinnamic acid, reference compound]
inhibition at 100 µM ([3]; 10^−4M, 24 hours): 10.4%
inhibition at 10 µM ([3]; 24 hours): 2.34%
anti-tyrosinase activity, in words [3]: very low activity

Compound: Cl.NCCc1ccc(O)cc1 [Tyramine, reference compound]
anti-tyrosinase activity, in words [3]: very low activity
inhibition at 100 µM [3]: 22.8%

Compound: O=C1O[C@H]([C@@H](O)CO)C(O)=C1O [VitC, Vitamin C]
Cytotoxicity, 0.03% [1]: no
Cytotoxicity, 0.3% ([1]; test concentration 0.3%): cell death
Cytotoxicity, 3% ([1]; test concentration 3%): cell death
Tyrosinase inhibition, Mean Inhibition (%), 0.03% [3]: 0%

More lines, main results first:

Tyrosinase inhibition, Mean Inhibition (%), 0.03% [3]: 2.93%
Tyrosinase inhibition, Mean Inhibition (%), 0.3% ([3]; test concentration 0.3%): 1.55%
Tyrosinase inhibition, Mean Inhibition (%), 3% ([3]; test concentration 3%): 0%
Compound: O=C1O[C@H]([C@@H](O)CO)C([O-])=C1OP(=O)([O-])[O-].O=C1O[C@H]([C@@H](O)CO)C([O-])=C1OP(=O)([O-])[O-].[Mg+2].[Mg+2].[Mg+2] [VitC MgP, reference compound]
Cytotoxicity, 0.03% [1]: no
Cytotoxicity, 0.3% [1]: no
Cytotoxicity, 3% [1]: no

inhibition at 100 µM ([3]; 10^−4M, 24 hours): 96.2%
inhibition at 10 µM ([3]; 24 hours): 40.7%
Compound: O=C(CCc1ccc(O)cc1)NCCc1ccc(O)cc1 [Example 16, N-dihydrocoumaroyltyramine]

inhibition at 100 µM ([3]; 10^−4M, 24 hours): 3.74%
Compound: O=C(O)CCc1ccc(O)cc1 [p-Dihydrocoumaric acid, 3-(4-hydroxyphenyl)propionic acid, reference compound]

inhibition at 100 µM ([3]; 10^−4M, 24 hours): 33.6%
inhibition at 10 µM ([3]; 24 hours): 3.48%
Compound: COc1cc(/C=C/C(=O)OCCc2ccc(O)cc2)ccc1O [Example 7, 2-(p-hydroxyphenylethyl)trans-ferulate]
